Measured values taken from US20070049593A1 (priority 2004, published 2007).
Structures can show the parent of a compound that is named as a salt.

Molecular target: T1, HCV polymerase (Hepatitis C virus genotype 1b, UniProt P26663)
T1 construct: a region encoding NS5B (J Virol 1991 March, 65(3), 1105-13, 544 amino acids after deletion of 47 amino acids on the C-terminal); 6xHis (C); made in house; host or cells: Escherichia coli
Assay: biochemical
Design: species or system HCV BK strain
Procedure, shortened: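 His-tagged NS5B (BK strain, 47-aa C-terminal deletion, E. coli-expressed) at 0.5 μg/ml copied 5 μg/ml run-off RNA bearing the HCV 3′ UTR with 2 μM UTP plus [3H]UTP, 50 μM ATP/GTP, in pH 7.5 Tris with 5 mM MgCl2, 25 °C, 90 min. TCA-precipitated RNA was counted and IC50 calculated.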

T1 sequence (P26663 2420-2963): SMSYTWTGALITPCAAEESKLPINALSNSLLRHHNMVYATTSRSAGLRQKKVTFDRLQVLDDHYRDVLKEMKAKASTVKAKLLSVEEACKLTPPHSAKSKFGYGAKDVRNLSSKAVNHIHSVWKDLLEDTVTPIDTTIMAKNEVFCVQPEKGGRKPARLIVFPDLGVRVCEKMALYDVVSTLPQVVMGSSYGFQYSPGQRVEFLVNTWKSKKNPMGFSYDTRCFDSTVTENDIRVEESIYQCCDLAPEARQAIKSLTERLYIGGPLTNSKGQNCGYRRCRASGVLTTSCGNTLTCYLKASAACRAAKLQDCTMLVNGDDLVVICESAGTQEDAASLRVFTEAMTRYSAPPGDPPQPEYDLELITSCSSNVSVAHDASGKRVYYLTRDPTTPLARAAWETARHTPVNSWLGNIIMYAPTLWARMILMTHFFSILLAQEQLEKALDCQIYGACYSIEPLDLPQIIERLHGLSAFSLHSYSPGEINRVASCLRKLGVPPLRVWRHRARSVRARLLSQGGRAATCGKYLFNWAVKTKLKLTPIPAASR

Row | Compound | IC50 [nM]
1 | O=C(O)c1ccc2c(C3CCCCC3)c3n(c2c1)CCN(CCN1CCCCC1)c1cc(OC(F)(F)F)ccc1-3 [Example 1-522, 13-cyclohexyl-5-[2-(piperidin-1-yl)ethyl]-3-trifluoromethoxy-6,7-dihydro-5H-benzo[5,6][1,4]diazepino[7,1-a]indole-10-carboxylic acid dihydrochloride] | < 100
2 | COCC[C@@H]1CCCN(CCN2CCn3c(c(C4CCCCC4)c4ccc(C(=O)O)cc43)-c3ccc(OC(F)(F)F)cc32)C1 [Example 1-523, 13-cyclohexyl-5-{2-[(S)-3-(2-methoxyethyl)piperidin-1-yl]ethyl}-3-trifluoromethoxy-6,7-dihydro-5H-benzo[5,6][1,4]diazepino[7,1-a]indole-10-carboxylic acid dihydrochloride] | < 100
3 | CCN(CCCN1CCn2c(c(C3CCCCC3)c3ccc(C(=O)O)cc32)-c2ccc(C)cc21)C(C)C [Example 1-524, 13-cyclohexyl-5-[3-(N-ethyl-N-isopropylamino)propyl]-3-methyl-6,7-dihydro-5H-benzo[5,6][1,4]diazepino[7,1-a]indole-10-carboxylic acid dihydrochloride] | < 100
4 | COC1CCCN(CCN2CCn3c(c(C4CCCCC4)c4ccc(C(=O)O)cc43)-c3ccc(C)cc32)CC1 (stereo not shown) [Example 1-525, 13-cyclohexyl-5-[2-(4-methoxyazepan-1-yl)ethyl]-3-methyl-6,7-dihydro-5H-benzo[5,6][1,4]diazepino[7,1-a]indole-10-carboxylic acid dihydrochloride] | < 100
5 | Cc1ccc2c(c1)N(CCN1CCC(=O)N(C)CC1)CCn1c-2c(C2CCCCC2)c2ccc(C(=O)O)cc21 [Example 1-526, 13-cyclohexyl-3-methyl-5-[2-(4-methyl-5-oxo-1,4-diazepan-1-yl)ethyl]-6,7-dihydro-5H-benzo[5,6][1,4]diazepino[7,1-a]indole-10-carboxylic acid dihydrochloride] | < 100
6 | Cc1ccc2c(c1)N(CCN1CCC[C@@H](CC(=O)N(C)C)C1)CCn1c-2c(C2CCCCC2)c2ccc(C(=O)O)cc21 [Example 1-527, 13-cyclohexyl-5-{2-[(S)-3-(dimethylcarbamoylmethyl)piperidin-1-yl]ethyl}-3-methyl-6,7-dihydro-5H-benzo[5,6][1,4]diazepino[7,1-a]indole-10-carboxylic acid dihydrochloride] | < 100
7 | COCCOC[C@@H]1CCCN(CCN2CCn3c(c(C4CCCCC4)c4ccc(C(=O)O)cc43)-c3ccc(C)cc32)C1 [Example 1-528, 13-cyclohexyl-5-{2-[(R)-3-(2-methoxyethoxymethyl)piperidin-1-yl]ethyl}-3-methyl-6,7-dihydro-5H-benzo[5,6][1,4]diazepino[7,1-a]indole-10-carboxylic acid dihydrochloride] | < 100
8 | Cc1ccc2c(c1)N(CCN1CCC[C@@H](CC(C)(C)O)C1)CCn1c-2c(C2CCCCC2)c2ccc(C(=O)O)cc21 [Example 1-529, 13-cyclohexyl-5-{2-[(S)-3-(2-hydroxy-2-methylpropyl)piperidin-1-yl]ethyl}-3-methyl-6,7-dihydro-5H-benzo[5,6][1,4]diazepino[7,1-a]indole-10-carboxylic acid dihydrochloride] | < 100
9 | COC[C@@H]1CCCN(CCN2CCn3c(c(C4CCCCC4)c4ccc(C(=O)O)cc43)-c3cc(F)c(F)cc32)C1 [Example 1-530, 13-cyclohexyl-2,3-difluoro-5-[2-7((R)-3-methoxymethylpiperidin-1-yl)ethyl]-6,7-dihydro-5H-benzo[5,6][1,4]diazepino[7,1-a]indole-10-carboxylic acid dihydrochloride] | < 100
10 | CCN(CCCOC)CCN1CCn2c(c(C3CCCCC3)c3ccc(C(=O)O)cc32)-c2ccc(C)cc21 [Example 1-531, 13-cyclohexyl-5-{2-[N-ethyl-N-(3-methoxypropyl)amino]ethyl}-3-methyl-6,7-dihydro-5H-benzo[5,6][1,4]diazepino[7,1-a]indole-10-carboxylic acid dihydrochloride] | < 100
11 | Cc1ccc2c(c1)N(CCN1CCOCC(C)C1)CCn1c-2c(C2CCCCC2)c2ccc(C(=O)O)cc21 (stereo not shown) [Example 1-532, 13-cyclohexyl-3-methyl-5-[2-(6-methyl-1,4-oxazepan-4-yl)ethyl]-6,7-dihydro-5H-benzo[5,6][1,4]diazepino[7,1-a]indole-10-carboxylic acid dihydrochloride] | < 100
12 | Cc1ccc2c(c1)N(CCN1CCC[C@@H](C(C)(C)O)C1)CCn1c-2c(C2CCCCC2)c2ccc(C(=O)O)cc21 [Example 1-533, 13-cyclohexyl-5-{2-[(R)-3-(1-hydroxy-1-methylethyl)piperidin-1-yl]ethyl}-3-methyl-6,7-dihydro-5H-benzo[5,6][1,4]diazepino[7,1-a]indole-10-carboxylic acid dihydrochloride] | < 100
13 | COCCN1CCCC(CCN2CCn3c(c(C4CCCCC4)c4ccc(C(=O)O)cc43)-c3ccc(Cl)cc32)C1 (stereo not shown) [Example 1-534, 3-chloro-13-cyclohexyl-5-{2-[1-(2-methoxyethyl)piperidin-3-yl]ethyl}-6,7-dihydro-5H-benzo[5,6][1,4]diazepino[7,1-a]indole-10-carboxylic acid dihydrochloride] | < 100
14 | Cc1noc(C)c1COc1ccc2c(c1)N(CCN(C)C)CCn1c-2c(C2CCCCC2)c2ccc(C(=O)O)cc21 [Example 1-535, 13-cyclohexyl-5-(2-dimethylaminoethyl)-3-(3,5-dimethylisoxazol-4-ylmethoxy)-6,7-dihydro-5H-benzo[5,6][1,4]diazepino[7,1-a]indole-10-carboxylic acid dihydrochloride] | < 100
15 | Cc1ccc2c(c1)N(CCN1CCCC(=O)CC1)CCn1c-2c(C2CCCCC2)c2ccc(C(=O)O)cc21 [Example 1-536, 13-cyclohexyl-3-methyl-5-[2-(4-oxoazepan-1-yl)ethyl]-6,7-dihydro-5H-benzo[5,6][1,4]diazepino[7,1-a]indole-10-carboxylic acid dihydrochloride] | < 100
16 | Cc1ccc2c(c1)N(CCN1CCC[C@@H](CCC(=O)N(C)C)C1)CCn1c-2c(C2CCCCC2)c2ccc(C(=O)O)cc21 [Example 1-537, 13-cyclohexyl-5-{2-[(S)-3-(2-dimethylcarbamoylethyl)piperidin-1-yl]ethyl}-3-methyl-6,7-dihydro-5H-benzo[5,6][1,4]diazepino[7,1-a]indole-10-carboxylic acid dihydrochloride] | < 100
17 | Cc1ccc2c(c1)N(CCN1CCCC(O)CC1)CCn1c-2c(C2CCCCC2)c2ccc(C(=O)O)cc21 (stereo not shown) [Example 1-538, 13-cyclohexyl-5-[2-(4-hydroxyazepan-1-yl)ethyl]-3-methyl-6,7-dihydro-5H-benzo[5,6][1,4]diazepino[7,1-a]indole-10-carboxylic acid dihydrochloride] | < 100
18 | CCN(CCCCOC)CCN1CCn2c(c(C3CCCCC3)c3ccc(C(=O)O)cc32)-c2ccc(C)cc21 [Example 1-539, 13-cyclohexyl-5-{2-[N-ethyl-N-(4-methoxybutyl)amino]ethyl}-3-methyl-6,7-dihydro-5H-benzo[5,6][1,4]diazepino[7,1-a]indole-10-carboxylic acid dihydrochloride] | < 100
19 | COCCCC1CCCN(CCN2CCn3c(c(C4CCCCC4)c4ccc(C(=O)O)cc43)-c3ccc(C)cc32)C1 [Example 1-540, 13-cyclohexyl-5-{2-[(S)-3-(3-methoxypropyl)piperidin-1-yl]ethyl}-3-methyl-6,7-dihydro-5H-benzo[5,6][1,4]diazepino[7,1-a]indole-10-carboxylic acid dihydrochloride] | < 100
20 | COC(C)(C)[C@@H]1CCCN(CCN2CCn3c(c(C4CCCCC4)c4ccc(C(=O)O)cc43)-c3ccc(C)cc32)C1 [Example 1-541, 13-cyclohexyl-5-{2-[(R)-3-(1-methoxy-1-methylethyl)piperidin-1-yl]ethyl}-3-methyl-6,7-dihydro-5H-benzo[5,6][1,4]diazepino[7,1-a]indole-10-carboxylic acid dihydrochloride] | < 100
21 | COCCC1CCCCN1CCN1CCn2c(c(C3CCCCC3)c3ccc(C(=O)O)cc32)-c2ccc(C)cc21 (stereo not shown) [Example 1-542, 13-cyclohexyl-5-{2-[2-(2-methoxyethyl)piperidin-1-yl]ethyl}-3-methyl-6,7-dihydro-5H-benzo[5,6][1,4]diazepino[7,1-a]indole-10-carboxylic acid dihydrochloride] | < 100
22 | CN(C)CCN1CCn2c(c(C3CCCCC3)c3ccc(C(=O)O)cc32)-c2ccc(OCc3ccccn3)cc21 [Example 1-543, 13-cyclohexyl-5-(2-dimethylaminoethyl)-3-(pyridin-2-ylmethoxy)-6,7-dihydro-5H-benzo[5,6][1,4]diazepino[7,1-a]indole-10-carboxylic acid trihydrochloride] | < 100
23 | COCC[C@@H]1CCCN(CCN2CCn3c(c(C4CCCCC4)c4ccc(C(=O)O)cc43)-c3cc(F)c(F)cc32)C1 [Example 1-544, 13-cyclohexyl-2,3-difluoro-5-{2-[(S)-3-(2-methoxyethyl)piperidin-1-yl]ethyl}-6,7-dihydro-5H-benzo[5,6][1,4]diazepino[7,1-a]indole-10-carboxylic acid dihydrochloride] | < 100
24 | Cc1ccc2c(c1)N(CCN1CCCC(C(=O)N(C)C)C1)CCn1c-2c(C2CCCCC2)c2ccc(C(=O)O)cc21 (stereo not shown) [Example 1-545, 13-cyclohexyl-5-[2-(3-dimethylcarbamoylpiperidin-1-yl)ethyl]-3-methyl-6,7-dihydro-5H-benzo[5,6][1,4]diazepino[7,1-a]indole-10-carboxylic acid dihydrochloride] | < 100
25 | COCCOc1ccc2c(c1)N(CCN1CCCCC1)CCn1c-2c(C2CCCCC2)c2ccc(C(=O)O)cc21 [Example 1-546, 13-cyclohexyl-3-(2-methoxyethoxy)-5-[2-(piperidin-1-yl)ethyl]-6,7-dihydro-5H-benzo[5,6][1,4]diazepino[7,1-a]indole-10-carboxylic acid dihydrochloride] | < 100
